Experimental data taken from ChEMBL document CHEMBL1201862, “PubChem BioAssay data set” (2004).
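Interpolation was linear, between the two tested concentrations surrounding the appropriate level; five concentrations were tested over 48 hours in 96-well plates. GI50 = concentration required for 50% inhibition of growth.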 Activity calls are given as the source filed them. No stated cut-off is given here; in the data, active = GI50 up to about 1.1 µM and inactive = higher.

What was measured:
Test in all cases: NCI anticancer screen, dose series, 48 h
A498 = system: A498
ACHN = system: ACHN
CAKI-1 = system: CAKI-1
CCRF-CEM = system: CCRF-CEM
EKVX = system: EKVX
HOP-92 = system: HOP-92
Hs-578T = system: Hs-578T
K562 = system: K562
M14 = system: M14
NCI-H226 = system: NCI-H226
NCI-H23 = system: NCI-H23
OVCAR-3 = system: OVCAR-3
OVCAR-5 = system: OVCAR-5
OVCAR-8 = system: OVCAR-8
SNB-19 = system: SNB-19
SNB-75 = system: SNB-75
SR = system: SR
TK-10 = system: TK-10
MDA-N = system: MDA-N
SK-MEL-2 = system: SK-MEL-2

Row | SMILES | GI50 (A498) | GI50 (ACHN) | GI50 (CAKI-1) | GI50 (CCRF-CEM) | GI50 (EKVX) | GI50 (HOP-92) | GI50 (Hs-578T) | GI50 (K562) | GI50 (M14) | GI50 (NCI-H226) | GI50 (NCI-H23) | GI50 (OVCAR-3) | GI50 (OVCAR-5) | GI50 (OVCAR-8) | GI50 (SNB-19) | GI50 (SNB-75) | GI50 (SR) | GI50 (TK-10) | GI50 (MDA-N) | GI50 (SK-MEL-2)
1 | Cc1cc(S(=O)(=O)[N-]/C(=N/S(=O)(=O)c2ccc(Cl)cc2)[n+]2ccc(N(C)C)cc2)c(SCC(=O)O)cc1Cl | 45.4 µM (inactive) | > 100 µM (inactive) | > 100 µM (inactive) | 45.3 µM (inactive) | 46.8 µM (inactive) | 24.6 µM (inactive) | > 100 µM (inactive) | 37.8 µM (inactive) | 25.2 µM (inactive) | 52.7 µM (inactive) | > 100 µM (inactive) | 69.7 µM (inactive) | 21.5 µM (inactive) | > 100 µM (inactive) | > 100 µM (inactive) | 20.5 µM (inactive) | 35 µM (inactive) | 86.5 µM (inactive) |  | 
2 | O=S(=O)(O)c1cc(Cl)c(O)c2ncc(Cl)cc12 | > 100 µM (inactive) | 76 µM (inactive) | > 100 µM (inactive) | 24.6 µM (inactive) | 69 µM (inactive) | 87.1 µM (inactive) |  | 41.6 µM (inactive) | 90.8 µM (inactive) | 73.1 µM (inactive) | 72.4 µM (inactive) | 69.2 µM (inactive) | > 100 µM (inactive) | 37.5 µM (inactive) | 84.7 µM (inactive) | > 100 µM (inactive) | 32.2 µM (inactive) |  | > 100 µM (inactive) | > 100 µM (inactive)
3 | CC(C)OCC(O)COc1cc(=O)oc2ccccc12 (stereo not drawn) |  | > 100 µM (inactive) | > 100 µM (inactive) | > 100 µM (inactive) | > 100 µM (inactive) | > 100 µM (inactive) | > 100 µM (inactive) | > 100 µM (inactive) | > 100 µM (inactive) |  | > 100 µM (inactive) | > 100 µM (inactive) | > 100 µM (inactive) | > 100 µM (inactive) | > 100 µM (inactive) |  | > 100 µM (inactive) | > 100 µM (inactive) | > 100 µM (inactive) | > 100 µM (inactive)
4 | COc1cc2nc(-c3cccs3)nc(N3C(c4cc(OC)c(OC)c(OC)c4)=NNC(=O)c4ccccc43)c2cc1OC | > 100 µM (inactive) | 44.1 µM (inactive) | 52.8 µM (inactive) |  | 30.8 µM (inactive) | 78.5 µM (inactive) | 38.9 µM (inactive) | 8.34 µM (inactive) | 15.3 µM (inactive) | > 100 µM (inactive) | 14 µM (inactive) | 6.43 µM (inactive) | 21.8 µM (inactive) | 3.4 µM (inactive) | 16.4 µM (inactive) | 25.7 µM (inactive) | 6.93 µM (inactive) | 22.8 µM (inactive) |  | 76 µM (inactive)
5 | CC(C)CCCC(C)[C@H]1CCC2[C@@H]3CCC4Cc5nc6c(nc5C[C@]4(C)C3CC[C@@]21C)CC1CC[C@@H]2C(C[C@@H](O)[C@@]3(C)C2C[C@@H]2OC4(CCC(C)CO4)C(C)[C@@H]23)[C@@]1(C)C6 (stereo partly drawn) |  | > 100 µM (inactive) |  | > 100 µM (inactive) | > 100 µM (inactive) | > 100 µM (inactive) | > 100 µM (inactive) | > 100 µM (inactive) | > 100 µM (inactive) | > 100 µM (inactive) | > 100 µM (inactive) | > 100 µM (inactive) | > 100 µM (inactive) | > 100 µM (inactive) | > 100 µM (inactive) | > 100 µM (inactive) | > 100 µM (inactive) | > 100 µM (inactive) | > 100 µM (inactive) | 
6 | CC(C)(CO)CNc1nc(N)nc(Cl)c1N |  | > 100 µM (inactive) | > 100 µM (inactive) | > 100 µM (inactive) | > 100 µM (inactive) | > 100 µM (inactive) | > 100 µM (inactive) | > 100 µM (inactive) |  | 67.3 µM (inactive) | > 100 µM (inactive) | > 100 µM (inactive) | > 100 µM (inactive) | > 100 µM (inactive) | > 100 µM (inactive) | > 100 µM (inactive) |  | > 100 µM (inactive) | > 100 µM (inactive) | > 100 µM (inactive)
7 | CC(C)(CC#N)c1cc(CC(C)(C)c2cc(CC(C)(C)c3cc(C(C)(C)C4(C)OCCO4)no3)no2)no1 | 28.9 µM (inactive) | 35.5 µM (inactive) | 22.4 µM (inactive) | 45.8 µM (inactive) | 33 µM (inactive) |  | 22.8 µM (inactive) | > 100 µM (inactive) | > 100 µM (inactive) | 36.4 µM (inactive) | > 100 µM (inactive) | 56 µM (inactive) | > 100 µM (inactive) | 51.9 µM (inactive) | 21.8 µM (inactive) | 14.7 µM (inactive) |  | 51.5 µM (inactive) | 51.1 µM (inactive) | 42.7 µM (inactive)
8 | NC(=O)NNc1nc(-c2ccccc2)cs1 | > 100 µM (inactive) | > 100 µM (inactive) | > 100 µM (inactive) | 47 µM (inactive) | > 100 µM (inactive) |  | > 100 µM (inactive) | > 100 µM (inactive) | > 100 µM (inactive) | > 100 µM (inactive) |  | > 100 µM (inactive) | > 100 µM (inactive) | > 100 µM (inactive) | > 100 µM (inactive) | > 100 µM (inactive) | > 100 µM (inactive) | > 100 µM (inactive) |  | > 100 µM (inactive)
9 | Cc1ccc(S(=O)(=O)Nn2c(O)c(C#N)c(-c3ccc([N+](=O)[O-])cc3)c(C#N)c2=O)cc1 | > 100 µM (inactive) | > 100 µM (inactive) | > 100 µM (inactive) | > 100 µM (inactive) | > 100 µM (inactive) | > 100 µM (inactive) |  | > 100 µM (inactive) | > 100 µM (inactive) | > 100 µM (inactive) |  |  | > 100 µM (inactive) | > 100 µM (inactive) | > 100 µM (inactive) | > 100 µM (inactive) |  | > 100 µM (inactive) | > 100 µM (inactive) | > 100 µM (inactive)
10 | CN1CCN(C2=NCCO2)CC1 | > 100 µM (inactive) | > 100 µM (inactive) | > 100 µM (inactive) | > 100 µM (inactive) | > 100 µM (inactive) |  |  | > 100 µM (inactive) | > 100 µM (inactive) | > 100 µM (inactive) | > 100 µM (inactive) | > 100 µM (inactive) | > 100 µM (inactive) | > 100 µM (inactive) | > 100 µM (inactive) | > 100 µM (inactive) | > 100 µM (inactive) | > 100 µM (inactive) | > 100 µM (inactive) | > 100 µM (inactive)
11 | Cc1ccc(S(=O)(=O)NNC(=O)c2cc(C)ccc2NC(=O)C23CC4CC(CC(C4)C2)C3)cc1 |  | 21.1 µM (inactive) | 46 µM (inactive) | > 100 µM (inactive) | 60 µM (inactive) | 21.6 µM (inactive) | 32.9 µM (inactive) | > 100 µM (inactive) | 84.7 µM (inactive) | 60.7 µM (inactive) | 36.1 µM (inactive) | 34.4 µM (inactive) | > 100 µM (inactive) | 45.7 µM (inactive) | 16.9 µM (inactive) |  | 84.5 µM (inactive) | 41.8 µM (inactive) | > 100 µM (inactive) | 
12 | COC(=O)c1cc(C#N)[nH]c1-c1ccc(C)s1 | 26.9 µM (inactive) | 41.3 µM (inactive) | 41.9 µM (inactive) | 53 µM (inactive) | 19.5 µM (inactive) | 30.2 µM (inactive) |  | > 100 µM (inactive) | > 100 µM (inactive) | 37.6 µM (inactive) | 34 µM (inactive) | 26.9 µM (inactive) | 47.5 µM (inactive) | 59.3 µM (inactive) | > 100 µM (inactive) | 25.3 µM (inactive) | 63 µM (inactive) |  | > 100 µM (inactive) | 
13 | COc1cc2c(c(OC)c1OC)C(=O)[C@@H](O)[C@H]2NC(N)=O |  | > 100 µM (inactive) | > 100 µM (inactive) | > 100 µM (inactive) | > 100 µM (inactive) |  | > 100 µM (inactive) | > 100 µM (inactive) | > 100 µM (inactive) | > 100 µM (inactive) | > 100 µM (inactive) | > 100 µM (inactive) | > 100 µM (inactive) | > 100 µM (inactive) | > 100 µM (inactive) | > 100 µM (inactive) |  | > 100 µM (inactive) | > 100 µM (inactive) | 
14 | Cc1ccc(S(=O)(=O)N/N=C2\C=CC3(CC2)C(=O)N(I)c2ccccc23)cc1 (stereo not drawn) | > 100 µM (inactive) | > 100 µM (inactive) | > 100 µM (inactive) | 75 µM (inactive) | > 100 µM (inactive) | 89.7 µM (inactive) |  | 25.1 µM (inactive) | > 100 µM (inactive) | > 100 µM (inactive) | > 100 µM (inactive) | > 100 µM (inactive) | > 100 µM (inactive) | > 100 µM (inactive) | > 100 µM (inactive) | > 100 µM (inactive) | 86.9 µM (inactive) | > 100 µM (inactive) | 83 µM (inactive) | 48.1 µM (inactive)
15 | S=c1[nH]c(Cl)cc2nc(Cl)cn12 | 14.4 µM (inactive) | 8.61 µM (inactive) | 4.53 µM (inactive) | 2.52 µM (inactive) | 2.25 µM (inactive) | 17.5 µM (inactive) | 2.3 µM (inactive) |  | 4.24 µM (inactive) | 15 µM (inactive) | 5.82 µM (inactive) | 2.59 µM (inactive) |  | 4.74 µM (inactive) | 6.04 µM (inactive) | 2.1 µM (inactive) |  | 7.5 µM (inactive) | 1.98 µM (inactive) | 3.85 µM (inactive)
16 | Cc1cccc(-c2cc(O)c3c(C)ccnc3n2)c1 | 0.791 µM (active) | 0.601 µM (active) | 0.39 µM (active) | 0.583 µM (active) | 0.935 µM (active) |  | 0.356 µM (active) | 0.139 µM (active) | 0.291 µM (active) | 0.495 µM (active) | 1.17 µM (inactive) | 0.256 µM (active) | 1.19 µM (inactive) | 0.718 µM (active) | 0.447 µM (active) | 0.36 µM (active) |  | > 53.1 µM (inactive) | 0.0474 µM (active) | 0.321 µM (active)
